Experimental data published in patent US8192962B2, “Processes for detecting toxic substances” (Daikin Industries, Ltd., priority 2001, dated 2012).

Tested on: Metabolism protein genes
Test: DNA chip mRNA expression in yeast, metabolism protein genes (Table 7)
Assay type: cell-based, Saccharomyces cerevisiae S288C
Protocol: Yeast (Saccharomyces cerevisiae S288C (α SUC2mal mel gap2 CUP1)) were incubated at 25° C. on YPD medium (yeast extract 1%, polypepton 2%, glucose 2%). One of toxic chemical substances was added to the cells at logarithmic growth phase, and the cells were further incubated for two hours. Cells were cultured without any chemical substance in the same condition, and were used as control. Concentrations of the chemical substances were defined to inhibit the growth of the yeast but not lead to death.
After completion of the incubation, the culture was centrifuged to collect the cells. To the cells, sodium acetate buffer (50 mM sodium acetate, 10 mM EDTA, 1% SDS) was added, and the mixture was shaken at 65° C. for five minutes, followed by returning to room temperature, and obtaining the supernatant, of which the procedures were repeated two times. To the supernatant, ½ amount of a solution of phenol/chloroform was added, and the mixture was centrifuged to give a supernatant, which was added with an equal amount of chloroform, and the mixture was centrifuged to give a supernatant. To the supernatant, an equal amount of isopropanol containing 0.3 M sodium acetate was added, and the mixture was allowed to stand at room temperature for 30 minutes, after which the mixture was centrifuged to give a sediment of the whole RNAs. Seventy % ethanol was added to the sediment, and the mixture was again centrifuged to give a sediment, which was then dried and dissolved in water. mRNA was isolated from the whole RNAs as followings. In view of the fact that a poly A chain is attached to the 3′ terminus of mRNA, a polynucleotide having a poly T structure which was immobilized on the surface of latex beads was used to trap the mRNA, and then the mRNA was washed and eluted with spine column (Oligotex-dT30<Super>mRNA Purification Kit, Takara). Reverse transcription of the mRNA was conducted with a reverse transcriptase (Super Script II Reverse Transcriptase; catalogue No. 18064-014, GibcoBRL) using fluorescence-labeled nucleotides to give cDNAs that were introduced with Cy3-dUTP or Cy5-dUTP during the reverse transcription.
The labeled cDNAs were dissolved in TE buffer (10mM Tris-HCl/1 mM EDTA, pH8.0), and the solution was dropped on the DNA chip containing the whole genes of yeast (DNA Chip Research Inc. Japan) so that the cDNAs were hybridized on the DNA chip at 65° C. for over 12 hours. The fluoresces intensity of the DNA chip was read with a scanner, and the ratio relative to the fluorescence intensity resulting from the absence of chemical substance was estimated as the following, which is shown in Tables 1 to 9: […]

## [Cl][Hg][Cl] [(3), HgCl2]
Yeast gene YJR155W
  The level of expressed mRNA in the presence of chemical substance/The level of expressed mRNA in the absence of chemical substance: 1.4
Yeast gene YKL035W
  The level of expressed mRNA in the presence of chemical substance/The level of expressed mRNA in the absence of chemical substance: 4.8
Yeast gene YKL060C
  level of expressed mRNA in the presence/in the absence of chemical substance: 2.5
Yeast gene YKL091C
  The level of expressed mRNA in the presence of chemical substance/The level of expressed mRNA in the absence of chemical substance: 1.4
Yeast gene YKL104C
  The level of expressed mRNA in the presence of chemical substance/The level of expressed mRNA in the absence of chemical substance: 1.6
Yeast gene YKL148C
  level of expressed mRNA in the presence/in the absence of chemical substance: 3.7
Yeast gene YKL152C
  The level of expressed mRNA in the presence of chemical substance/The level of expressed mRNA in the absence of chemical substance: 1.9
Yeast gene YKL157W
  level of expressed mRNA in the presence/in the absence of chemical substance: 2.3
Yeast gene YKL213C
  The level of expressed mRNA in the presence of chemical substance/The level of expressed mRNA in the absence of chemical substance: 1.0
Yeast gene YKL215C
  The level of expressed mRNA in the presence of chemical substance/The level of expressed mRNA in the absence of chemical substance: 1.3
Yeast gene YKR034W
  level of expressed mRNA in the presence/in the absence of chemical substance: 1.1
Yeast gene YLL058W
  The level of expressed mRNA in the presence of chemical substance/The level of expressed mRNA in the absence of chemical substance: 1.4
Yeast gene YLR006C
  level of expressed mRNA in the presence/in the absence of chemical substance: 0.9
Yeast gene YLR044C
  level of expressed mRNA in the presence/in the absence of chemical substance: 2.2
Yeast gene YLR056W
  level of expressed mRNA in the presence/in the absence of chemical substance: 2.5
Yeast gene YLR058C
  level of expressed mRNA in the presence/in the absence of chemical substance: 5.5
Yeast gene YLR081W
  level of expressed mRNA in the presence/in the absence of chemical substance: 2.8
Yeast gene YLR089C
  level of expressed mRNA in the presence/in the absence of chemical substance: 2.1
Yeast gene YLR180W
  The level of expressed mRNA in the presence of chemical substance/The level of expressed mRNA in the absence of chemical substance: 2.4
Yeast gene YLR273C
  The level of expressed mRNA in the presence of chemical substance/The level of expressed mRNA in the absence of chemical substance: 1.3
Yeast gene YLR284C
  level of expressed mRNA in the presence/in the absence of chemical substance: 3.8
Yeast gene YLR299W
  The level of expressed mRNA in the presence of chemical substance/The level of expressed mRNA in the absence of chemical substance: 1.5
Yeast gene YLR300W
  The level of expressed mRNA in the presence of chemical substance/The level of expressed mRNA in the absence of chemical substance: 0.8
Yeast gene YLR304C
  level of expressed mRNA in the presence/in the absence of chemical substance: 5.0
Yeast gene YLR307W
  The level of expressed mRNA in the presence of chemical substance/The level of expressed mRNA in the absence of chemical substance: 0.7
Yeast gene YLR348C
  The level of expressed mRNA in the presence of chemical substance/The level of expressed mRNA in the absence of chemical substance: 1.2
Yeast gene YLR354C
  level of expressed mRNA in the presence/in the absence of chemical substance: 2.3
Yeast gene YLR372W
  level of expressed mRNA in the presence/in the absence of chemical substance: 1.7
Yeast gene YML022W
  level of expressed mRNA in the presence/in the absence of chemical substance: 2.0
Yeast gene YML054C
  The level of expressed mRNA in the presence of chemical substance/The level of expressed mRNA in the absence of chemical substance: 1.3
Yeast gene YML070W
  The level of expressed mRNA in the presence of chemical substance/The level of expressed mRNA in the absence of chemical substance: 2.5
Yeast gene YML100W
  The level of expressed mRNA in the presence of chemical substance/The level of expressed mRNA in the absence of chemical substance: 10.6
Yeast gene YMR008C
  The level of expressed mRNA in the presence of chemical substance/The level of expressed mRNA in the absence of chemical substance: 1.4
Yeast gene YMR011W
  level of expressed mRNA in the presence/in the absence of chemical substance: 9.4
Yeast gene YMR015C
  level of expressed mRNA in the presence/in the absence of chemical substance: 1.9
Yeast gene YMR020W
  The level of expressed mRNA in the presence of chemical substance/The level of expressed mRNA in the absence of chemical substance: 0.9
Yeast gene YMR083W
  level of expressed mRNA in the presence/in the absence of chemical substance: 2.6
Yeast gene YMR105C
  The level of expressed mRNA in the presence of chemical substance/The level of expressed mRNA in the absence of chemical substance: 5.0
Yeast gene YMR189W
  The level of expressed mRNA in the presence of chemical substance/The level of expressed mRNA in the absence of chemical substance: 1.9
Yeast gene YMR205C
  level of expressed mRNA in the presence/in the absence of chemical substance: 2.3
Yeast gene YMR261C
  level of expressed mRNA in the presence/in the absence of chemical substance: 3.6
Yeast gene YMR271C
  The level of expressed mRNA in the presence of chemical substance/The level of expressed mRNA in the absence of chemical substance: 1.3
Yeast gene YMR296C
  The level of expressed mRNA in the presence of chemical substance/The level of expressed mRNA in the absence of chemical substance: 1.2
Yeast gene YMR323W
  level of expressed mRNA in the presence/in the absence of chemical substance: 2.9
Yeast gene YNL012W
  The level of expressed mRNA in the presence of chemical substance/The level of expressed mRNA in the absence of chemical substance: 1.8
Yeast gene YNL025C
  level of expressed mRNA in the presence/in the absence of chemical substance: 1.4
Yeast gene YNL045W
  The level of expressed mRNA in the presence of chemical substance/The level of expressed mRNA in the absence of chemical substance: 2.0
Yeast gene YNL104C
  The level of expressed mRNA in the presence of chemical substance/The level of expressed mRNA in the absence of chemical substance: 3.0
Yeast gene YNL106C
  The level of expressed mRNA in the presence of chemical substance/The level of expressed mRNA in the absence of chemical substance: 0.8
Yeast gene YNL169C
  The level of expressed mRNA in the presence of chemical substance/The level of expressed mRNA in the absence of chemical substance: 1.4
Yeast gene YNL192W
  level of expressed mRNA in the presence/in the absence of chemical substance: 1.5
Yeast gene YNL231C
  The level of expressed mRNA in the presence of chemical substance/The level of expressed mRNA in the absence of chemical substance: 0.8
Yeast gene YNL322C
  The level of expressed mRNA in the presence of chemical substance/The level of expressed mRNA in the absence of chemical substance: 1.9
Yeast gene YNL331C
  The level of expressed mRNA in the presence of chemical substance/The level of expressed mRNA in the absence of chemical substance: 1.3
Yeast gene YNL332W
  The level of expressed mRNA in the presence of chemical substance/The level of expressed mRNA in the absence of chemical substance: 1.1
Yeast gene YNR019W
  The level of expressed mRNA in the presence of chemical substance/The level of expressed mRNA in the absence of chemical substance: 1.6
Yeast gene YNR033W
  The level of expressed mRNA in the presence of chemical substance/The level of expressed mRNA in the absence of chemical substance: 0.8
Yeast gene YNR059W
  The level of expressed mRNA in the presence of chemical substance/The level of expressed mRNA in the absence of chemical substance: 0.2
Yeast gene YOL058W
  The level of expressed mRNA in the presence of chemical substance/The level of expressed mRNA in the absence of chemical substance: 1.7
Yeast gene YOL086C
  level of expressed mRNA in the presence/in the absence of chemical substance: 2.2
Yeast gene YOL108C
  level of expressed mRNA in the presence/in the absence of chemical substance: 0.4
Yeast gene YOL116W
  level of expressed mRNA in the presence/in the absence of chemical substance: 0.9
Yeast gene YOL126C
  The level of expressed mRNA in the presence of chemical substance/The level of expressed mRNA in the absence of chemical substance: 1.0
Yeast gene YOL153C
  The level of expressed mRNA in the presence of chemical substance/The level of expressed mRNA in the absence of chemical substance: 2.1
Yeast gene YOL156W
  level of expressed mRNA in the presence/in the absence of chemical substance: 2.5
Yeast gene YOL165C
  The level of expressed mRNA in the presence of chemical substance/The level of expressed mRNA in the absence of chemical substance: 1.8
Yeast gene YOR002W
  level of expressed mRNA in the presence/in the absence of chemical substance: 1.9
Yeast gene YOR085W
  level of expressed mRNA in the presence/in the absence of chemical substance: 1.9
Yeast gene YOR099W
  The level of expressed mRNA in the presence of chemical substance/The level of expressed mRNA in the absence of chemical substance: 2.1
Yeast gene YOR103C
  level of expressed mRNA in the presence/in the absence of chemical substance: 1.3
Yeast gene YOR108W
  level of expressed mRNA in the presence/in the absence of chemical substance: 2.3
Yeast gene YOR128C
  level of expressed mRNA in the presence/in the absence of chemical substance: 2.1
Yeast gene YOR130C
  The level of expressed mRNA in the presence of chemical substance/The level of expressed mRNA in the absence of chemical substance: 1.4
Yeast gene YOR142W
  level of expressed mRNA in the presence/in the absence of chemical substance: 3.4
Yeast gene YOR176W
  level of expressed mRNA in the presence/in the absence of chemical substance: 2.7
Yeast gene YOR178C
  level of expressed mRNA in the presence/in the absence of chemical substance: 4.8
Yeast gene YOR251C
  level of expressed mRNA in the presence/in the absence of chemical substance: 1.3
Yeast gene YOR336W
  The level of expressed mRNA in the presence of chemical substance/The level of expressed mRNA in the absence of chemical substance: 0.7
Yeast gene YOR347C
  The level of expressed mRNA in the presence of chemical substance/The level of expressed mRNA in the absence of chemical substance: 2.1
Yeast gene YOR348C
  level of expressed mRNA in the presence/in the absence of chemical substance: 1.2
Yeast gene YPL017C
  The level of expressed mRNA in the presence of chemical substance/The level of expressed mRNA in the absence of chemical substance: 0.8
Yeast gene YPL028W
  level of expressed mRNA in the presence/in the absence of chemical substance: 2.6
Yeast gene YPL057C
  level of expressed mRNA in the presence/in the absence of chemical substance: 3.2
Yeast gene YPL135W
  level of expressed mRNA in the presence/in the absence of chemical substance: 2.5
Yeast gene YPL148C
  level of expressed mRNA in the presence/in the absence of chemical substance: 0.9
Yeast gene YPR026W
  The level of expressed mRNA in the presence of chemical substance/The level of expressed mRNA in the absence of chemical substance: 5.0
Yeast gene YPR113W
  level of expressed mRNA in the presence/in the absence of chemical substance: 3.7
Yeast gene YPR165W
  level of expressed mRNA in the presence/in the absence of chemical substance: 1.6
Yeast gene YPR167C
  The level of expressed mRNA in the presence of chemical substance/The level of expressed mRNA in the absence of chemical substance: 1.9
Yeast gene YPR183W
  level of expressed mRNA in the presence/in the absence of chemical substance: 3.5
